US20230257374A1, “NOVEL KRAS G12C PROTEIN INHIBITOR, PREPARATION METHOD THEREFOR, AND USE THEREOF” (INNOVENT BIOLOGICS (SUZHOU) CO., LTD., priority 2019, published 2023)

What was measured:
[1] = tested on: NCI-H358 tumor (K-RAS G12C mutation); format: in vivo, BALB/c nude mice
Protocol: The cells were digested with trypsin-EDTA twice a week for passaging as per conventional practice. When the cell saturation reached 80%-90% and a required amount was achieved, the cells were collected and counted for later use. […] 5% DMSO/5% Solutol/90% water was used as a blank control. 3) Tumor inoculation and drug administration: BALB/c nude mice, female, 6-8 weeks old, weighing 18-20 g. The experiment started after 3-7 days of adaptive feeding. 0.1 mL of NCI-H358 cells (5×10^6 cells) were inoculated subcutaneously on the right back of each mouse. The mice were grouped for administration when the average tumor volume reached approximately 150 mm^3. The animals were weighed before administration and the tumor volume was measured. Grouping was randomly performed according to the tumor volume.
Animals were monitored daily for health and death, and routine examinations include observation of the effect of tumor growth and drug treatment on the daily performance of the animals, such as behavioral activities, food and water intake, weight changes (measured once every other day), appearance, or other abnormal conditions. Animal mortality and side effects within each group were recorded based on the number of animals in the group.
Tumor diameters were measured 2-3 times weekly using a vernier caliper.
The tumor volume was calculated as follows: […]
where a and b represent the long and short diameters of the tumor, respectively.
The anti-tumor therapeutic effect of the compound was evaluated by tumor growth inhibition rate TGI (%) or relative tumor proliferation rate T/C (%).
TGI (%) was calculated as follows: […]
T/C (%) was calculated as follows: […]
where TRTV represents the relative tumor volume of the treatment group; CRTV represents the relative tumor volume of the solvent control group.
Based on the results of tumor measurement, the relative tumor volume (RTV) was calculated as follows: […]
where V0 represents the average tumor volume measured at the time of grouping and administration (i.e., d0), Vt represents the average tumor volume in a certain measurement, and TRTV and CRTV take the data on the same day.
After the completion of the experiment, tumors were weighed, and the percentage of Tweight/Cweight was calculated, where Tweight and Cweight represent the tumor weights of the treatment group and the solvent control group, respectively.
Data calculation and analysis: T test was employed for comparison between two groups. One-way ANOVA was employed for comparison between three or more groups. If there is a significant difference in F-values, multiple comparisons should be made after ANOVA analysis. All data analyses were performed with SPSS 17.0. p<0.05 was defined as a significant difference.

[2] = human, plasma, 5 μM
Protocol: (§6) To examine the stability of the test compounds in plasma, representative compounds were selected for evaluation.
(§7) Preparation of stock solution: a test compound was dissolved in DMSO to prepare a 1 mM stock solution for later use; Propantheline Bromide was dissolved in acetonitrile to prepare a 1 mM stock solution as a positive control for later use.
(§8) To each well was added 2 μL of the stock solution of the test compound and the stock solution of the positive control such that the final concentrations were 5 KM and the concentration of the organic solvent was 0.5%. Each compound was prepared in duplicate, followed by incubation at 37° C. 50 μL of samples were taken from the reaction samples in equal amounts at 0, 30, 60, 120, 180 and 240 minutes, and 450 μL of cold acetonitrile containing an internal standard was added to terminate the reaction. […] 100 μL of the supernatants were transferred to a new plate, dilute with ultra-pure water, and analyzed by LC-MS/MS.
(§9) Data results were calculated according to peak area ratios.
(§10) The percentage of remaining compound for each time point was calculated as follows:
(§11) Remaining percentagemin(%)=peak area ratiosmin/peak area ratiomin×100%
(§12) where peak area ratios represents the peak area ratio of the test compound to the internal standard compound at t min; peak area ratiomin represents the peak area ratio of the test compound to the internal standard compound at 0 min (initial).

in vitro [3] = conditions: microsomes, pH 7.4
Protocol: To examine the in vitro metabolic stability of the test compounds in liver microsomes of different species, representative compounds were selected, and their stability was evaluated by measuring the concentration of the test compounds in the incubation system using LC/MS/MS and calculating their intrinsic clearance in the microsome system.
The method is specifically as follows: each compound was first dissolved in DMSO to prepare a 200 μM working solution and added to the system solution at the time of testing to form a solution with a final concentration of 1 μM.
The microsomes were stored in a −80° C. freezer.
Preparation of incubation system: an incubation system was prepared as described in the table below.
25 μL, of NADPH or phosphate buffered saline was transferred to the incubation system described above, and 2 μL, of 200 μM of the test compound or verapamil was added. The sample with NADPH added was prepared in duplicate; the NADPH negative sample was prepared in single parallel. 30 μL, of suspension was taken at 0.5, 5, 15, 30 and 60 minutes. The reaction system was terminated by adding 180 μL, of acetonitrile containing an internal standard and vortexed for 10 min. […] 100 μL, of the supernatant was transferred to a feeding plate, and 100 μL, of purified water was added. The mixture was well mixed for UPLC-MS/MS analysis.
The results based on the data were obtained by calculation according to the peak area ratio, and the peak area was detected through an extracted ion chromatogram.
The slope value (k) was determined by linear fitting of the natural logarithm of drug elimination percentage over time.

in vitro [4] = conditions: human, plasma
Protocol: as §6, §7, §8, §9, §10, §11, §12

[5] = tested on: H1373 cell line (K-RAS G12C); assay: cells; format: cell-based; conditions: Homo sapiens, NCI-H1373, 96 h, read-out: H1373 (K-RAS G12C) IC50
Protocol: (§1) a) On day 1, seed cells were placed in T75 a flask. b) On day 3, the medium was taken out and washed once with DPBS. c) Cells were trypsinized with 2 mL TrypLE™ Express enzyme at room temperature (RT) or 37° C. until cells detached. d) 5 mL of fresh medium was added to suspend the cells, and then the suspension was centrifuged at 1000 rpm and room temperature for 5 min. e) The supernatant was discarded, and the cells were resuspended in 5 mL of fresh medium and counted using Countess™ H. f) The cells were seeded back into the T75 flask for further culture or placed into an assay plate for 3D cell proliferation assay.
(§2) The cells were seeded at a density of 600 cells/well in a 384-well plate with 40 μL of medium per well and a final DMSO concentration of 0.5%. b) On day 4, a 3D CTG reagent was added to each well, followed by shaking at room temperature for 1 h. c) The signals were recorded using Envision.
(§3) a) Robustness was examined using 0.5% DMSO and data of blank control medium: H=mean (DMSO); L=mean (medium); SD (H)=STDEV (DMSO); SD (L)=STDEV (medium);
(§4) Y=peak valley value+(peak top value−peak valley value)/(1+10^((Log IC50−X)×HillSlope));
(§5) X: logarithm of compound concentration; Y: percent inhibition (% inhibition); Peak top and peak valley values: the plateau period units are the same as Y; log IC50: the same logarithmic unit as X; HillSlope: slope coefficient or Hill slope.

[6] = tested on: MIA PaCa-2 cell line (K-RAS G12C); assay: cells; format: cell-based; conditions: Homo sapiens, MIA PaCa-2, 96 h, read-out: MIA PaCa-2 (K-RAS G12C) IC50
Protocol: as §1, §2, §3, §4, §5

[7] = tested on: H358 cell line (K-RAS G12C); assay: cells; format: cell-based, human; conditions: Homo sapiens, NCI-H358, 96 h, read-out: H358 (K-RAS G12C) IC50
Protocol: as §1, §2, §3, §4, §5

[8] = Day 0 (at grouping, before administration), 15 mg/kg PO QD group

## [2H]C([2H])([2H])N1CCC[C@H]1COc1nc2c(c(N3CCN(C(=O)C=C)[C@@H](CC#N)C3)n1)CCN(c1cccc3cccc(Cl)c13)C2 [Compound 41, 2-((S)-1-acryloyl-4-(7-(8-chloronaphthalene-1-yl)-2-(((S)-1-(methyl-d3)pyrrolidin-2-yl)methoxy)-5,6,7,8-tetrahydropyrido[3,4-d]pyrimidin-4-yl)piperazin-2-yl)acetonitrile]
[1]; [8]
  Day 0 Body weight (g) Waverage ± SEM: 22.7 ± 0.4 g
  Day 0 Tumor volume (mm^3) Vaverage ± SEM: 151 ± 8 mm^3
[1]; Day 21, 15 mg/kg PO QD
  Day 21 Body weight (g) Waverage ± SEM: 23.4 ± 0.6 g
  Day 21 Tumor volume (mm^3) Vaverage ± SEM: 168 ± 20 mm^3
  Tumor inhibition rate TGI (%): 97.0%
[1]; Day 21, 15 mg/kg PO QD, animals with regression / group of 8
  Tumor regression: 2/8
[2]; 0 h
  Remaining percentage (%) 0 min: 100.00%
[2]; 0.5 h
  Remaining percentage (%) 30 min: 96.01%
[2]; 1 h
  Remaining percentage (%) 60 min: 75.85%
[2]; 2 h
  Remaining percentage (%) 120 min: 56.99%
[2]; 3 h
  Remaining percentage (%) 180 min: 34.80%
[2]; 4 h
  Remaining percentage (%) 240 min: 26.83%
In vitro [3]; ICR (CD-1), mouse
  half-life at 1 μM: 14.6 min
  microsomal CLint at 1 μM: 95.3 µL/min/mg
In vitro [3]; human
  half-life at 1 μM: 26 min
  microsomal CLint at 1 μM: 53.4 µL/min/mg
In vitro [4]
  half-life at 5 μM: 119 min
[5]
  IC50: 0.18 nM
[6]
  IC50: 0.31 nM
[7]
  IC50: 0.28 nM
